Measured values: patent US7718688B2, “Nitrobenzindoles and their use in cancer therapy” (Auckland Uniservices Limited, priority 2004, dated 2010)
pIC50: −log10 of the molar value.

Key:
[1] = system: HT29: human colon cancer cell line; test: Proliferation IC50 assay, oxic/hypoxic, HT29; type: cell-based; settings: for pIC50 / HCR (hypoxic cytotoxicity ratio) HT29: Table 3; for pIC50: 4 h exposure under aerobic conditions; for HCR (hypoxic cytotoxicity ratio) HT29: IC50(aerobic)/IC10(hypoxic)
[2] = One-electron reduction potential E(1) by pulse radiolysis; type: physicochemical; settings: determined by pulse radiolysis
[3] = system: SKOV3: human ovarian carcinoma cell line; test: Proliferation IC50 assay, oxic/hypoxic, SKOV3; type: cell-based; settings: Table 3; for pIC50: 4 h exposure under aerobic conditions; for HCR (hypoxic cytotoxicity ratio) SKOV3: IC50(aerobic)/IC10(hypoxic)
[4] = system: HT29 clonogens; test: Clonogenic assay (C10), oxic/hypoxic, HT29; type: cell-based, human; settings: for Clonogenic HCR HT29: C10(aerobic)/C10(hypoxic); for Clonogenic C10 HT29 Oxic: concentration to reduce HT29 clonogens to 10% of controls, 4 hr exposure under aerobic conditions
[5] = Hypoxic metabolism with HT29 tumour S9 (HPLC); settings: for k: rate of formation of compound of Formula II: 10 μM with tumour S9 (12 mg/mL protein), 37° C., pH 7.4, NADPH 1 mM, 2 h, products R3, 56, 55, 60
From the text: Metabolism of compounds of Formula I was investigated using S9 preparations from HT29 tumours grown as xenografts in CD-1 mice.

SMILES | melting point | pIC50 ([1]; Homo sapiens, HT-29) | HCR (hypoxic cytotoxicity ratio) HT29 [1] | E(1): one-electron reduction potential [2] [mV] | pIC50 ([3]; Homo sapiens, SK-OV-3) | HCR (hypoxic cytotoxicity ratio) SKOV3 [3] | pIC50 [1] | pIC50 [3] | Clonogenic HCR HT29 [4] | Clonogenic C10 HT29 Oxic [4] [µM] | k: rate of formation of compound of Formula II ([5]; hypoxic) [µM/h] | HCR: Hypoxic cytotoxicity ratio for HT29 cell line ([1]; Table 5, as defined in Table 3) | formation of 60 under hypoxic conditions ([5]; 26 at 10 μM with S9, 2 h, hypoxic, HPLC) | formation of 60 under oxic conditions ([5]; 26 at 10 μM with S9, 2 h, oxic, HPLC)
CN(C)CCOc1ccc2[nH]c(C(=O)N3CC(CCl)c4c3cc([N+](=O)[O-])c3c(C(N)=O)cccc43)cc2c1 (stereo not drawn) [Compound 5, 1-(Chloromethyl)-3-{5-[2-(dimethylamino)ethoxy]indol-2-carbonyl}-5-nitro-1,2-dihydro-3H-benzo[e]indole-6-carboxamide] | > 350 °C | 4.64 | 43 | −481 ± 8 | 4.30 | 18 | – | – | – | – | – | – | – | –
CN(C)CCOc1ccc2[nH]c(C(=O)N3CC(CCl)c4c3cc([N+](=O)[O-])c3c(C#N)cccc43)cc2c1 (stereo not drawn) [Compound 6, 1-(Chloromethyl)-3-{5-[2-(dimethylamino)ethoxy]indol-2-carbonyl}-5-nitro-1,2-dihydro-3H-benzo[e]indole-6-carbonitrile] | > 300 °C | 6.92 | 1.1 | −491 ± 8 | 6.77 | 1.7 | – | – | – | – | – | – | – | –
CN(C)CCOc1ccc2[nH]c(C(=O)N3CCc4c3cc([N+](=O)[O-])c3c(S(N)(=O)=O)c(CCl)ccc43)cc2c1 [Compound 7, 7-(Chloromethyl)-3-{5-[2-(dimethylamino)ethoxy]indol-2-carbonyl}-5-nitro-1,2-dihydro-3H-benzo[e]indole-6-sulfonamide] | > 320 °C | 5.57 | 2.3 | −497 ± 8 | 5.43 | 4.6 | – | – | – | – | – | – | – | –
COc1cc2cc(C(=O)N3CC(CCl)c4c3cc([N+](=O)[O-])c3cc([N+](=O)[O-])ccc43)[nH]c2c(OC)c1OC (stereo not drawn) [Compound 8] | – | – | 12 | – | – | 78 | 4.85 | 4.80 | >16.2 | >25 | – | – | – | –
COc1cc2cc(C(=O)N3CC(CCl)c4c3cc([N+](=O)[O-])c3cc(C(C)=O)ccc43)[nH]c2c(OC)c1OC (stereo not drawn) [Compound 11, 7-Acetyl-1-(chloromethyl)-5-nitro-3-(5,6,7-trimethoxyindol-2-carbonyl)-1,2-dihydro-3H-benzo[e]indole] | 257 to 260 °C | 5.39 | 5.2 | – | 5.29 | 19 | – | – | >13.5 | >25 | – | – | – | –
CN(C)CCOc1ccc2[nH]c(C(=O)N3CC(CCl)c4c3cc([N+](=O)[O-])c3cc(C(N)=O)ccc43)cc2c1 (stereo not drawn) [Compound 16, 1-(Chloromethyl)-3-{5-[2-(dimethylamino)ethoxy]indol-2-carbonyl}-5-nitro-1,2-dihydro-3H-benzo[e]indole-7-carboxamide] | – | 5.39 | – | −422 ± 10 | 5.41 | – | – | – | >14 | >25 | 1.48 | – | – | –
COc1cc2cc(C(=O)N3CC(CCl)c4c3cc([N+](=O)[O-])c3cc(C(=O)NCCN(C)C)ccc43)[nH]c2c(OC)c1OC (stereo not drawn) [Compound 20, 1-(Chloromethyl)-N-[2-(dimethylamino)ethyl]-5-nitro-3-(5,6,7-trimethoxyindol-2-carbonyl)-1,2-dihydro-3H-benzo[e]indole-7-carboxamide] | – | 5.82 | 5.9 | −427 ± 12 | 5.70 | 24 | – | – | – | – | – | – | – | –
CN(C)CCOc1ccc2[nH]c(C(=O)N3CC(CCl)c4c3cc([N+](=O)[O-])c3cc(C#N)ccc43)cc2c1 (stereo not drawn) [Compound 22, 1-(Chloromethyl)-3-{5-[2-(dimethylamino)ethoxy]indol-2-carbonyl}-5-nitro-1,2-dihydro-3H-benzo[e]indole-7-carbonitrile] | – | 6.15 | – | −385 ± 8 | 6.09 | – | – | – | – | – | 1.27 | – | – | –
CN(C)CCOc1ccc2[nH]c(C(=O)N3CC(CCl)c4c3cc([N+](=O)[O-])c3cc(S(C)(=O)=O)ccc43)cc2c1 (stereo not drawn) [Compound 24, 1-(Chloromethyl)-3-{5-[2-(dimethylamino)ethoxy]indol-2-carbonyl}-7-(methylsulfonyl)-5-nitro-1,2-dihydro-3H-benzo[e]indole] | – | 6.01 | 4.0 | −362 ± 8 | 5.89 | 11 | – | – | – | – | – | – | – | –
CN(C)CCOc1ccc2[nH]c(C(=O)N3CC(CCl)c4c3cc([N+](=O)[O-])c3cc(S(N)(=O)=O)ccc43)cc2c1 (stereo not drawn) [Compound 26, 1-(Chloromethyl)-3-{5-[2-(dimethylamino)ethoxy]indol-2-carbonyl}-5-nitro-1,2-dihydro-3H-benzo[e]indole-7-sulfonamide] | – | 5.34 | 330 | −390 ± 9 | 5.16 | 280 | – | – | >30.9 | >42 | – | 330 | major product of hypoxic metabolism | not detected
CN(C)CCNS(=O)(=O)c1ccc2c3c(cc([N+](=O)[O-])c2c1)N(C(=O)c1cc2cc(OCCN(C)C)ccc2[nH]1)CC3CCl (stereo not drawn) [Compound 39, 1-(Chloromethyl)-3-{5-[2-(dimethylamino)ethoxy]indol-2-carbonyl}-N-[2-(dimethylamino)ethyl]-5-nitro-1,2-dihydro-3H-benzo[e]indole-7-sulfonamide] | – | 6.14 | 110 | −357 ± 8 | 6.08 | 130 | – | – | 55 | 6.2 | – | – | – | –
CN(C)CCOc1ccc2[nH]c(C(=O)N3CC(CCl)c4c3cc([N+](=O)[O-])c3ccc(C(N)=O)cc43)cc2c1 (stereo not drawn) [Compound 43, 1-(Chloromethyl)-3-{5-[2-(dimethylamino)ethoxy]indol-2-carbonyl}-5-nitro-1,2-dihydro-3H-benzo[e]indole-8-carboxamide] | – | 5.55 | 22 | −447 ± 9 | 5.47 | 34 | – | – | 21.2 | 33 | – | – | – | –
CN(C)CCOc1ccc2[nH]c(C(=O)N3CC(CCl)c4c3cc([N+](=O)[O-])c3ccc(C#N)cc43)cc2c1 (stereo not drawn) [Compound 45] | – | – | 1.4 | −419 ± 8 | – | 1.5 | 5.85 | 5.92 | – | – | – | – | – | –
CN(C)CCOc1ccc2[nH]c(C(=O)N3CC(CCl)c4c3cc([N+](=O)[O-])c3ccc(S(C)(=O)=O)cc43)cc2c1 (stereo not drawn) [Compound 47, 1-(Chloromethyl)-3-{5-[2-(dimethylamino)ethoxy]indol-2-carbonyl}-8-(methylsulfonyl)-5-nitro-1,2-dihydro-3H-benzo[e]indole] | – | 6.01 | 1.2 | −420 ± 8 | 5.72 | 2.7 | – | – | – | – | – | – | – | –
CN(C)CCOc1ccc2[nH]c(C(=O)N3CC(CCl)c4c3cc([N+](=O)[O-])c3ccc(S(N)(=O)=O)cc43)cc2c1 (stereo not drawn) [Compound 49, 1-(Chloromethyl)-3-{5-[2-(dimethylamino)ethoxy]indol-2-carbonyl}-5-nitro-1,2-dihydro-3H-benzo[e]indole-8-sulfonamide] | 260 to 265 °C (dec.) | 5.05 | 26 | −456 ± 8 | 5.31 | 21 | – | – | – | – | – | – | – | –
CN(C)CCOc1ccc2[nH]c(C(=O)N3CC(CCl)c4c3cc([N+](=O)[O-])c3cccc([N+](=O)[O-])c43)cc2c1 (stereo not drawn) [Compound 52, 1-(Chloromethyl)-3-{5-[2-(dimethylamino)ethoxy]indol-2-carbonyl}-5,9-dinitro-1,2-dihydro-3H-benzo[e]indole] | – | 5.85 | 1.3 | −477 ± 7 | 5.92 | 1.5 | – | – | – | – | – | – | – | –
CN(C)CCOc1ccc2[nH]c(C(=O)N3CC(CCl)c4c3cc([N+](=O)[O-])c3ccccc43)cc2c1 (stereo not drawn) [Compound R2, reference compound] | – | 6.33 | – | −512 ± 8 | 5.85 | – | – | – | 2 | 4.8 | 0.49 | – | – | –
